Experimental data taken from US6703020B1 (Board of Regents, The University of Texas System, priority 1999, dated 2004).

Tests used:
VEGFR2 (KDR/Fc) = experiment: Coprecipitation assay, VEGF with VEGFR2/Fc; type: binding; details: 40 ng VEGF, 200 ng receptor/Fc
Procedure: 200 ng of soluble forms of VEGFR1 (Flt-1/Fc) or VEGFR2 (KDR/Fc, R&D Systems, Minneapolis, Minn.) were added for a total volume of 50 μl and incubated for 2 hrs. The receptor/Fc constructs were precipitated using Protein A-sepharose beads and the resulting precipitate was washed 4 times with binding buffer.
Reducing sample buffer was added to the pellet and supernatant of each reaction and both were analyzed by 12% SDS-PAGE and transferred to PVDF membranes. […] The soluble receptor/Fc constructs were also detected by using peroxidase-conjugated goat anti-human Fc (Kirkegaard & Perry Laboratories, Inc.)
The receptor/Fc constructs were precipitated by incubation with Protein A sepharose beads. The precipitate was washed and resuspended in reducing sample buffer and separated by 12% SDS-PAGE and transferred to PVDF.

[1] = Blood clearance of radioiodinated 2C3-GUS in mice; type: in vivo, mouse; details: intravenous
Excerpt: 2C3-GUS was radioiodinated with ^125I to a specific activity of 5×10^6 cpm/μg.

[2] = system: human NCI-H358 NSCLC tumors; experiment: Localization of 2C3-GUS in SCID mice bearing NCI-H358 tumors; type: in vivo, mouse
[3] = system: Human tumor xenografts (NCI-H358 NSCLC, NCI-H460 NSCLC, HT29 colon adenocarcinoma, L540 Hodgkin's lymphoma); experiment: Immunohistochemistry on frozen sections of human tumor xenografts; type: binding, mouse; design: key: −, negative; +/−, very weak; 1+, weak; 2+, moderate; 3+, strong; 4+, very strong; details: acetone fixed frozen sections; 2C3 and 12D7 at 20 μg/ml, others 5-10 μg/ml
Procedure: (§1) Guinea pig line 10 hepatocellular carcinoma tumor cells (obtained from Dr. Ronald Neuman, NIH, Bethesda, Md.) were grown in strain 2 guinea pigs (NCI, Bethesda, Md.). The human tumors NCI-H358 non-small cell lung carcinoma (NSCLC), NCI-H460 NSCLC (both obtained from Dr. Adi Gazdar, UT Southwestern, Dallas, Tex.), HT29 colon adenocarcinoma (American Type Culture Collection), and L540CY Hodgkin's lymphoma (obtained from Professor V. Diehl, Cologne, Germany) were grown as xenografts in CB17 SCID mice (Charles River, Wilmington, Mass.).
(§2) Tumors were snap frozen in liquid nitrogen and stored at −70° C. Frozen samples of tumor specimens from patients were obtained from the National Cancer Institute Cooperative Human Tissue Network (Southern Division, Birmingham, Ala.). Immununohistochemistry was performed as described by Burrows et al. (1995).
The immunohistochemical reactivity of 3E7, GV39M, and 11B5 on NCI-H358 human NSCLC xenografts was determined and compared with control antibodies (an IgG of irrelevant specificity; A-20, a rabbit anti-VEGF antibody; and MECA 32, a rat anti-mouse endothelial cell antibody). 8 μm frozen sections of NCI-H358 human NSCLC grown in SCID mice were stained using an indirect immunoperoxidase technique and were counterstained with hematoxylin.

Human tumors (various) = experiment: Immunohistochemistry on frozen sections of human tumors; type: binding; design: key: −, negative; +/−, very weak; 1+, weak; 2+, moderate; 3+, strong; 4+, very strong; details: acetone fixed frozen sections; 2C3 and 12D7 at 20 μg/ml, others 5-10 μg/ml
Procedure: as §2
(§3) Tumors examined through immunohistochemistry were human tumors of various types from cancer patients, transplantable human tumor xenografts of various types grown in mice, guinea pig Line 10 tumor grown in guinea pig, and mouse 3LL tumor grown in mice (see legend to Table 3 for details).

[4] = target: T1, guinea pig VEGF in line 10 guinea pig tumor sections (Cavia porcellus, UniProt P26617); experiment: Immunohistochemistry on guinea pig line 10 tumor sections; type: binding; design: key: −, negative; +/−, very weak; 1+, weak; 2+, moderate; 3+, strong; 4+, very strong; details: acetone fixed frozen sections; 2C3 and 12D7 at 20 μg/ml, others 5-10 μg/ml
T1 construct: from tissue; host or cells: frozen sections of line 10 hepatocellular carcinoma grown in strain 2 guinea pigs
T1 sequence (P26617 1-164): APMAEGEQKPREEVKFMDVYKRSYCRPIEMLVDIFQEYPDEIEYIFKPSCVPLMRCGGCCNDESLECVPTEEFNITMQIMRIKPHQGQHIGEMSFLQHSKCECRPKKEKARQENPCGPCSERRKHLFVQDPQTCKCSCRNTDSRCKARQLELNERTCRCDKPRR
Procedure: as §1, §2

[5] = system: mouse VEGF in mouse 3LL Lewis Lung carcinoma tumor sections; experiment: Immunohistochemistry on mouse 3LL tumor sections; type: binding; design: key: −, negative; +/−, very weak; 1+, weak; 2+, moderate; 3+, strong; 4+, very strong; details: acetone fixed frozen sections; 2C3 and 12D7 at 20 μg/ml, others 5-10 μg/ml
Procedure: as §2, §3

KDR on ABAE cells = experiment: 125I-VEGF binding studies on KDR expressing endothelial cells; type: cell-based, bovine
[6] = system: NCI-H358 NSCLC and HT29 colon adenocarcinoma xenografts; experiment: In vivo localization to human tumor xenografts in mice; design: species or system mouse; key to Immunohistochemical Reactivity Heart / Immunohistochemical Reactivity Lung / Immunohistochemical Reactivity Liver / Immunohistochemical Reactivity Kidney / Immunohistochemical Reactivity Intestine / Immunohistochemical Reactivity Spleen / Immunohistochemical Reactivity Tumor: −, negative; +/−, very weak; 1+, weak; 2+, moderate; 3+, strong; 4+, very strong
Procedure: Tumors were grown subcutaneously in immunocompromised mice (NCI-H358 NSCLC in nu/nu mice and HT29 colon adenocarcinoma in SCID mice) until the tumor volume was approximately 1 cm^3. 100 μg of unlabeled antibody for studies using SCID mice, or 100 μg of biotinylated antibody for studies using nude mice, was injected intravenously via a tail vein. Twenty four hours later, the mice were anesthetized, perfused with PBS, and tumor and organs including heart, lungs, liver, kidneys, intestines and spleen were collected and snap frozen in liquid nitrogen.
The tumor and organs from each mouse were sectioned on a cryostat and stained for antibody immunohistochemically as above, with the exception that sections from the nude mice were developed using peroxidase labeled streptavidin-biotin complex (Dako, Carpinteria, Calif.) and the sections from the SCID mice were developed using two peroxidase-conjugated secondary antibodies, a goat anti-mouse IgG+IgM followed by a rabbit anti-goat IgG.
100 μg of GV39M and 3E7 or isotype-matched control IgG were injected into SCID mice bearing HT29 human colonic adenocarcinomas. Twenty-four hours later, the mice were sacrificed, exsanguinated and the tumors and tissues were removed.

VEGFR2 (KDR/Flk-1) = experiment: ELISA of VEGF binding to VEGFR2-coated wells; design: species or system mouse
VEGFR1 (FLT-1) = experiment: ELISA of VEGF binding to VEGFR1-coated wells
NCI-H358 NSCLC = experiment: In vivo tumor growth inhibition, newly implanted NCI-H358; design: species or system mouse
Procedure: (§4) Nu/nu mice were injected subcutaneously with either 1×10^7 NCI-H358 NSCLC cells or 5×10^6 A673 rhabdomyosarcoma cells on day 0. […] The tumors were then measured twice per wk for a period of approximately six wk for the NCI-H358 bearing mice and four wk for the A673 bearing mice. Tumor volume was calculated according to the formula: volume=L×W×H, where L=length, W=width, H=height.

A673 rhabdomyosarcoma = experiment: In vivo tumor growth inhibition, newly implanted A673; design: species or system mouse; details: 100 μg i.p. 2 times per wk from day 1, nu/nu mice; controls approximately 1000 mm^3
Procedure: as §4

NCI-H358 NSCLC tumors = experiment: In vivo tumor therapy of established NCI-H358 xenografts; design: species or system mouse
Procedure: (§5) Male nu/nu mice bearing subcutaneous NCI-H358 tumors or HT1080 fibrosarcoma 200-400 mm^3 in size were injected i.p. with test or control antibodies. The NCI-H358 bearing mice were treated with 100 μg of antibodies per injection three times a week during the first week and twice a week during the second and third week. The mice were then switched to 50 μg per injection every five days. The HT1080 bearing mice were treated with 100 μg of the indicated antibody or saline every other day throughout the duration of the study. In both studies, mice were sacrificed when their tumors reached 2500 mm^3 in size or earlier if tumors began to ulcerate.
Doses were 50-100 μg every 3-5 days. […] In addition to measuring mean tumor volume (FIG. 4), photographs of the mice from each treatment group were also taken to show the differences in tumor size and appearance at the end of the study.

HT1080 fibrosarcoma = experiment: In vivo tumor therapy of established HT1080 xenografts; design: species or system mouse; details: 100 μg every two days
Procedure: as §5

[7] = system: A673 rhabdomyosarcoma and LS174T colon adenocarcinoma tumors; experiment: Treatment of mice with established A673 and LS174T tumors; type: in vivo, mouse
[8] = tumor-bearing mice, antibody intravenously 24 hours prior to sacrifice

mouse VEGF in mouse 3LL Lewis Lung carcinoma tumor sections, sequence (Q00731 205-317 limits assumed): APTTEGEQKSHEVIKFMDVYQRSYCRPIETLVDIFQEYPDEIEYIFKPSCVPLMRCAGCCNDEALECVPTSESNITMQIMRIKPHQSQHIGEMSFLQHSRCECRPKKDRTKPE

Substance: 2C3 F(ab′)2: F(ab′)2 of 2C3
- blocking of binding of VEGF to VEGFR2/Fc in solution (VEGFR2 (KDR/Fc)): blocked

Substance: 2C3-GUS [Clone 2C3-GUS]
- t½ α of clearance from the blood [1]: about 6 hours
- t½ β of clearance from the blood [1]: about 25 hours
- localization after i.v. injection ([2]; SCID mice, subcutaneous NCI-H358): specifically localized to tumor vasculature and surrounding tumor stroma
- staining of normal tissues ([2]; mouse, in vivo, sc): unstained

Substance: 2C3: anti-VEGF monoclonal antibody, IgG2a k, hybridoma ATCC PTA 1595; blocks VEGF binding to VEGFR2 but not VEGFR1 [Clone 2C3]
- Endothelial Cell Staining Xenograft (various) [3]: −
- Endothelial Cell Staining Hu Tumor (various) (Human tumors (various)): −
- Endothelial Cell Staining Guinea Pig Tumor (Line 10) [4]: −
- Endothelial Cell Staining Mouse Tumor (3LL) [5]: −
- blocking of 125I-VEGF binding to KDR (KDR on ABAE cells): blocks VEGF from binding to KDR in a concentration dependent manner
- Immunohistochemical Reactivity Tumor ([6]; 2C3: NCI-H358 in nu/nu mice, 3E7, GV39M: HT29 in SCID mice, 24 hours after i.v.): 3+
- localization in the HT29 human tumor model ([6]; after i.v. injection): localized strongly to the connective tissue
- Immunohistochemical Reactivity Heart [6, 8]: −
- Immunohistochemical Reactivity Intestine [6, 8]: −
- Immunohistochemical Reactivity Kidney [6, 8]: −
- Immunohistochemical Reactivity Liver [6, 8]: −
- Immunohistochemical Reactivity Lung [6, 8]: −
- Immunohistochemical Reactivity Spleen [6, 8]: −
- Blocks VEGF from binding to VEGFR2 (VEGFR2 (KDR/Flk-1)): Yes
- effect on VEGF binding to VEGFR2 in ELISA (VEGFR2 (KDR/Flk-1); 100-1000 fold excess): blocked
- amount VEGF that bound to VEGFR2-coated ELISA wells maintained at (VEGFR2 (KDR/Flk-1); 100 fold molar excess over VEGF): about 92%
- amount VEGF that bound to VEGFR2-coated wells, % of amount bound in absence of antibody (VEGFR2 (KDR/Flk-1); 1000-fold molar excess over VEGF (1 nM)): ~19%
- Blocks VEGF from binding to VEGFR1 (VEGFR1 (FLT-1)): No
- final tumor volume, NCI-H358 NSCLC (NCI-H358 NSCLC; 100 μg i.p. 2 times per wk from day 1, nu/nu mice, controls approximately 1000 mm^3): approximately 150 mm^3
- prevention of tumor growth at lower doses (NCI-H358 NSCLC; 10 or 1 μg twice per wk, NCI-H358 and A673): less effective
- final tumor volume, A673 rhabdomyosarcoma (A673 rhabdomyosarcoma): approximately 150 mm^3
- mean tumor volume after approximately 14 wk of treatment (NCI-H358 NSCLC tumors; established NCI-H358, 100 μg, prolonged treatment): 84 mm^3
- mean tumor volume at the end of the study, % of the initial mean tumor volume (NCI-H358 NSCLC tumors; established NCI-H358, 50-100 μg i.p. every 3-5 days, approximately 10 weeks): 30%
- decrease in mean tumor volume (NCI-H358 NSCLC tumors; established NCI-H358, approximately 14 wk): approximately 80%
- mean tumor weight (NCI-H358 NSCLC tumors; established NCI-H358, end of the study (day 116)): 0.054 g
- growth of HT1080 tumors (HT1080 fibrosarcoma): arrested the growth
- growth of established A673 rhabdomyosarcoma and LS174T colon adenocarcinoma tumors [7]: significantly slowed
